Experiments:
Assay type in all cases: cell-based
[1] = tested on: Pseudomonas aeruginosa wild strain PAM 1020; assay: Combined use of a pump inhibitor, levofloxacin (LVFX) and meropenem (MEPM) evaluated by the three-dimensional checker board method; settings: for FIC index: PAM 1020
Description: (1) Effect of Combined Used of a Pump Inhibitor, Levofloxacin (LVFX) and Meropenem (MEPM) Evaluated by the Three-Dimensional Checker Board Method
The effect was measured by the three-dimensional checker board method by using Pseudomonas aeruginosa wild strain PAM 1020. The test strain was inoculated into Mueller-Hinton broth containing LVFX, MEPM (at 11 concentration levels and 0 μg/ml) and the compound of Example 26 (40-0.625 μg/ml and 0 μg/ml) at a concentration of 10^6 CFU/ml and cultured at 37° C. for 18 hours. Then, MIC was measured for sole and combined use. Measurement was performed by the checker board method and FIC index was calculated according to the following equation. FIC index=a/a0+b/b0+c/c0 wherein a0: MIC for Agent A used alone, a: MIC for Agent A when Agents A, B and C are used in combination, b0: MIC for Agent B used alone, b: MIC for Agent B when Agents A, B and C are used in combination, c0: MIC for Agent C used alone, c: MIC for Agent C when Agents A, B and C are used in combination.
It was determined that there was synergistic effect when FIC index was 0.75 or less, additive effect or weak synergistic effect when the index was more than 0.75 but not more than 1.125, no effect of combined use when the index was more than 1.125 but not more than 3.0, and antagonistic effect when the index was more than 3.0.

[2] = tested on: Pseudomonas aeruginosa PAM 1723 strain highly expressing the drug efflux pump; assay: Effect of combined use with antimicrobial agent (levofloxacin, aztreonam) on multidrug resistant Pseudomonas aeruginosa; settings: 18 hours, MHB; for MPC8 AZT: minimum concentration of test compound required to enhance antibacterial activity of aztreonam at 1/8 or less of MIC; for MPC4 LVFX: minimum concentration of test compound required to enhance antibacterial activity of levofloxacin applied at 1/4 of MIC; for MPC8 LVFX: minimum concentration of test compound required to enhance antibacterial activity of levofloxacin applied at 1/8 or less of MIC
Excerpt: Effect of Combined Use with Antimicrobial Agent on Multidrug Resistant Pseudomonas aeruginosa
As multidrug resistant Pseudomonas aeruginosa, Pseudomonas aeruginosa PAM 1723 strain highly expressing the drug efflux pump was used. As antimicrobial drugs for the combinational uses, levofloxacin (LVFX) as a quinolone antibacterial agent and aztreonam (AZT) as a monobactam antibiotic were used. Each of the compounds shown in Table 1 with Example No., which falls within the compounds of the present invention, was subjected to the measurement of its minimum concentration (μg/ml) that was required to enhance the antibacterial activity of levofloxacin when the test compound was used in combination with levofloxacin applied at a concentration of 1/4, or 1/8 or less of the minimum inhibitory concentration against the PAM 1723 strain. […] Effects as combinational uses for 18 hours was indicated for each of the drugs. Effects were determined by visually observing the turbidity of the medium. The Müller-Hinton broth (MHB, Difco) was used as a medium, and the inoculum of the bacteria was 1×10^6 CFU/ml.

[3] = tested on: Pseudomonas aeruginosa PAM 1723 (a strain highly expressing MexAB-OprM drug efflux pump); assay: Combined use of drug efflux pump inhibitor and disinfectant, broth dilution method; settings: for enhancement of activity of the disinfectant on PAM 1723: combined use with 10 μg/ml of the compound of Example 26
Description: Effect of Combined Use of Drug Efflux Pump Inhibitor and Disinfectant
Effects of a combined use of a drug efflux pump inhibitor and alkyldiaminoethylglycine hydrochloride (AEG, trade name: Tego 51) or chlorhexidine gluconate (CHG, trade name: Hibiten) on Pseudomonas aeruginosa PAM 1723 (a strain highly expressing MexAB-OprM drug efflux pump) was determined by the broth dilution method. The compound of Example 26 was added at a final concentration of 10 μg/ml to Mueller-Hinton broth (MHB) containing a disinfectant at a concentration after 2-fold serial dilution. The amount of the test bacteria inoculated was 1×10^6 CFU/ml, and after standing cultivation at 37° C. for 18 hours, the culture was observed by visual inspection. The minimum concentration that gave no turbidity as in the control of MHB was determined as MIC.

[4] = combined with compound of Example 26 at 10 μg/ml, PAM 1723, 37° C. 18 hours
[5] = compound of Example 26 at 10 μg/ml, PAM 1723
[6] = disinfectant alone, PAM 1723, 37° C. 18 hours

CC(C)c1csc(CCc2ccn3c(=O)c(/C=C/C(=O)O)c(N4CCCC(O)C4)nc3c2)n1 (stereo not drawn) [Example 26]
FIC index ([1]; LVFX + MEPM 0.016 μg/ml + compound of Example 26 0.625 μg/ml): 1.039
FIC index ([1]; LVFX + MEPM 0.016 μg/ml + compound of Example 26 1.25 μg/ml): 1.047
FIC index ([1]; LVFX + MEPM 0.016 μg/ml + compound of Example 26 2.5 μg/ml): 1.063
FIC index ([1]; LVFX + MEPM 0.016 μg/ml + compound of Example 26 5 μg/ml): 0.594
FIC index ([1]; LVFX + MEPM 0.016 μg/ml + compound of Example 26 10 μg/ml): 0.656
FIC index ([1]; LVFX + MEPM 0.016 μg/ml + compound of Example 26 20 μg/ml): 0.781
FIC index ([1]; LVFX + MEPM 0.016 μg/ml + compound of Example 26 40 μg/ml): 1.031
FIC index ([1]; LVFX + MEPM 0.0313 μg/ml + compound of Example 26 0.625 μg/ml): 1.07
FIC index ([1]; LVFX + MEPM 0.0313 μg/ml + compound of Example 26 1.25 μg/ml): 1.078
FIC index ([1]; LVFX + MEPM 0.0313 μg/ml + compound of Example 26 2.5 μg/ml): 0.5938
FIC index ([1]; LVFX + MEPM 0.0313 μg/ml + compound of Example 26 5 μg/ml): 0.625
FIC index ([1]; LVFX + MEPM 0.0313 μg/ml + compound of Example 26 10 μg/ml): 0.6875
FIC index ([1]; LVFX + MEPM 0.0313 μg/ml + compound of Example 26 20 μg/ml): 0.8125
FIC index ([1]; LVFX + MEPM 0.0313 μg/ml + compound of Example 26 40 μg/ml): 1.0625
FIC index ([1]; LVFX + MEPM 0.0625 μg/ml + compound of Example 26 0.625 μg/ml): 1.133
FIC index ([1]; LVFX + MEPM 0.0625 μg/ml + compound of Example 26 1.25 μg/ml): 0.641
FIC index ([1]; LVFX + MEPM 0.0625 μg/ml + compound of Example 26 2.5 μg/ml): 0.656
FIC index ([1]; LVFX + MEPM 0.0625 μg/ml + compound of Example 26 5 μg/ml): 0.438
FIC index ([1]; LVFX + MEPM 0.0625 μg/ml + compound of Example 26 10 μg/ml): 0.500
FIC index ([1]; LVFX + MEPM 0.0625 μg/ml + compound of Example 26 20 μg/ml): 0.500
FIC index ([1]; LVFX + MEPM 0.0625 μg/ml + compound of Example 26 40 μg/ml): 0.750
FIC index ([1]; LVFX + MEPM 0.125 μg/ml + compound of Example 26 0.625 μg/ml): 0.781
FIC index ([1]; LVFX + MEPM 0.125 μg/ml + compound of Example 26 1.25 μg/ml): 0.563
FIC index ([1]; LVFX + MEPM 0.125 μg/ml + compound of Example 26 2.5 μg/ml): 0.500
FIC index ([1]; LVFX + MEPM 0.125 μg/ml + compound of Example 26 5 μg/ml): 0.563
FIC index ([1]; LVFX + MEPM 0.125 μg/ml + compound of Example 26 10 μg/ml): 0.766
FIC index ([1]; LVFX + MEPM 0.25 μg/ml + compound of Example 26 0.625 μg/ml): 1.063
MIC ([1]; Pseudomonas aeruginosa, agent used alone, PAM 1020 strain): ≥ 80 µg/mL
MPC8 AZT [2]: 1 µg/mL
MPC4 LVFX [2]: 0.25 µg/mL
MPC8 LVFX [2]: 1 µg/mL

alkyldiaminoethylglycine hydrochloride [AEG]
enhancement of activity of the disinfectant on PAM 1723 [3]: two times
MIC AEG Combined use [3, 4]: 32 µg/mL
AEG Ratio of MIC values for single use of the disinfectant and combined use with the compound of Example 26 [3, 5]: 2
MIC AEG Single use [3, 6]: 64 µg/mL

CC(C)c1csc(/C=C/c2ccn3c(=O)c(/C=C/C(=O)O)c(N4CCN(C(=O)[C@@H](N)CCCNC(=N)N)CC4)nc3c2)n1 [Example 78, (E)-3-{2-[4-((2 S)-2-Amino-5-{[amino(imino)methyl]amino}pentanoyl)-piperazino]-8-[(E)-2-(4-isopropyl-1,3-thiazol-2-yl)-1-ethenyl]-4-oxo-4H-pyrido[1,2-a]-pyrimidin-3-yl}-2-propenoic acid]
MPC8 AZT [2]: 1 µg/mL
MPC4 LVFX [2]: 0.5 µg/mL
MPC8 LVFX [2]: 1 µg/mL

CC(C)c1csc(/C=C/c2ccn3c(=O)c(/C=C/C(=O)O)c(OCC4CCOC4)nc3c2)n1 (stereo not drawn) [Example 117, (E)-3-{8-[(E)-2-(4-Isopropyl-1,3-thiazol-2-yl)-1-ethenyl]-4-oxo-2-(tetrahydro-3-furanylmethoxy)-4H-pyrido[1,2-a]pyrimidin-3-yl}-2-propenoic acid]
MPC8 AZT [2]: 4 µg/mL
MPC4 LVFX [2]: 1 µg/mL
MPC8 LVFX [2]: 4 µg/mL

N=C(NCCCCCCNC(=N)NC(=N)Nc1ccc(Cl)cc1)NC(=N)Nc1ccc(Cl)cc1.O=C(O)[C@H](O)[C@@H](O)[C@H](O)[C@H](O)CO.O=C(O)[C@H](O)[C@@H](O)[C@H](O)[C@H](O)CO [CHG, chlorhexidine gluconate]
enhancement of activity of the disinfectant on PAM 1723 [3]: four times
MIC CHG Combined use [3, 4]: 4 µg/mL
CHG Ratio of MIC values for single use of the disinfectant and combined use with the compound of Example 26 [3, 5]: 4
MIC CHG Single use [3, 6]: 16 µg/mL

CC(C)c1csc(/C=C/c2ccn3c(=O)c(/C=C/c4nnn[nH]4)c(N4CCCC(O)C4)nc3c2)n1 (stereo not drawn) [Example 104, 2-(3-Hydroxypiperidino)-8-[(E)-2-(4-isopropyl-1,3-thiazol-2-yl)-1-ethenyl]-3-[(E)-2-(1H-1,2,3,4-tetrazol-5-yl)-1-ethenyl]-4H-pyrido[1,2-a]pyrimidin-4-one]
MPC8 AZT [2]: 0.5 µg/mL
MPC4 LVFX [2]: 0.24 µg/mL
MPC8 LVFX [2]: 1 µg/mL

CCn1cc(-c2nn[nH]n2)c(=O)c2ccc(/C=C/c3nc(C(C)C)cs3)nc21 [Example 155, 1-Ethyl-7-[(E)-2-(4-isopropyl-1,3-thiazol-2-yl)-1-ethenyl]-3-(1H-1,2,3,4-tetrazol-5-yl)-1,4-dihydro[1,8]naphthylidin-4-one]
MPC8 AZT [2]: 2 µg/mL
MPC4 LVFX [2]: 0.25 µg/mL
MPC8 LVFX [2]: 2 µg/mL

CC(C)c1csc(CCc2ccn3c(=O)c(/C=C/C(=O)O)c(SCC(N)=O)nc3c2)n1 [Example 152, (E)-3-{2-Aminocarbonylmethylthio-8-[2-(4-isopropyl-1,3-thiazol-2-yl)-ethyl]-4-oxo-4H-pyrido[1,2-a]pyrimidin-3-yl}-2-propenoic acid]
MPC8 AZT [2]: 4 µg/mL
MPC4 LVFX [2]: 2 µg/mL
MPC8 LVFX [2]: 8 µg/mL

CC(C)c1csc(COc2ccn3c(=O)c(/C=C/C(=O)O)c(N4CCCC(O)C4)nc3c2)n1 (stereo not drawn) [Example 5, (E)-3-{2-(3-Hydroxypiperidino)-8-[(4-isopropyl-1,3-thiazol-2-yl)methoxy]-4-oxo-4H-pyrido[1,2-a]pyrimidin-3-yl}-2-propenoic acid]
MPC8 AZT [2]: 8 µg/mL
MPC4 LVFX [2]: 0.5 µg/mL
MPC8 LVFX [2]: 8 µg/mL

Source: patent US7056917B2, “Drug efflux pump inhibitor” (Daiichi Pharmaceutical Co., Ltd., priority 2001, dated 2006)
